In paper PMC9189904, “Functional Properties of Two Distinct PTH1R Mutants Associated With Either Skeletal Defects or Pseudohypoparathyroidism” (JBMR Plus, 2022):
Residue numbers refer to the chain shown, from its start.

Assays:
Assay type in all cases: cell-based
PTH1R‐R186H [1] = target: T1, PTH1R‐R186H (Homo sapiens, UniProt Q03431, R186H); assay: Fluorescence microscopy of PTH(1-34)TMR-PTH1R complexes in GS-22a cells, ImageJ analysis; conditions: ligand 30nM, means of six cells, representative experiment
T1 construct: expressed in transfected cells; plasmid TG-907 made by VectorBuilder
T1 sequence (Q03431 27-593 E90Y/S91D/E92V/E93P/K95Y/E96A/R186H): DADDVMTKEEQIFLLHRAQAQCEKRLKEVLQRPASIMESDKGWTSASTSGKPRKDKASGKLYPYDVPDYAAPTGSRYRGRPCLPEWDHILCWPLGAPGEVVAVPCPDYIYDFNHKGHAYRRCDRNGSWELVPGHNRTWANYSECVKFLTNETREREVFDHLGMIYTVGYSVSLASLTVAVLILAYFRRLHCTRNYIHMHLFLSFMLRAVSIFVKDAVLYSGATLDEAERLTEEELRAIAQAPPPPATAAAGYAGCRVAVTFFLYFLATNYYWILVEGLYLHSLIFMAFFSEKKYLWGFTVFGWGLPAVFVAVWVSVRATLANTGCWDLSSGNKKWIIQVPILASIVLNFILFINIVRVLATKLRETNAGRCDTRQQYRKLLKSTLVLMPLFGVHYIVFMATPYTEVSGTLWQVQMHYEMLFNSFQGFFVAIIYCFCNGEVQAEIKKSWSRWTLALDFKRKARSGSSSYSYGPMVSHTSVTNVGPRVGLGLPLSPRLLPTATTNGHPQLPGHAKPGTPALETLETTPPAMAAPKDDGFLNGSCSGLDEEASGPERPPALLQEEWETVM
Protocol: (§1) PTH analog binding to WT and mutant PTH1Rs was assessed by fluorescence microscopy in transiently transfected GS‐22A cells as described.^( [30], [31] ^) Briefly, the cells were transfected in six‐well plates, reseeded at 24 hours onto coverslips in six‐well plates, and at 48 hours posttransfection processed for analysis. The plates were placed on ice and the cells on coverslips were rinsed with cold HB. Then 1.0 mL of HB was then added to each well, followed by Alexafluor‐488‐labeled mouse monoclonal anti‐HA immunoglobulin G (IgG) antibody (BioLegend; Cat. No. 901509) at a concentration of 1 μg/mL, and the plate was incubated at 4°C for 1 hour. […] The plate was then shifted to room temperature and incubations continued for 30 minutes. The mixtures were then removed, the cells were rinsed twice with HB, fixed for 5 minutes in 3.7% paraformaldehyde buffer (Boston BioProducts, Inc., Ashland, MA, USA; Cat. No. BM‐158), rinsed with HB, then mounted on a glass microscope slide in Vectashield media containing 4′,6‐diamidino‐2‐phenylindole (DAPI) (Vector Laboratories, Burlingame, CA, USA; Cat. No. H1500) and imaged at magnification ×400 using a Nikon Eclipse fluorescence microscope equipped with a CCD camera configured with SPOT imaging software (Nikon, Tokyo, Japan). Regions of interest were digitally expanded 5× or 7× in PowerPoint software (Microsoft Corp., Redmond, WA, USA).
(§2) Fluorescent microscopy images were analyzed using ImageJ software, ver. […] The freehand tool was used to define the area analyzed for each cell, and the Measure>Analyze Particle tool was used to obtain the number of particles, the total area and the mean grayscale (intensity) of each particle for each cell. For each cell, the number of particles was divided by the total area to obtain the Particles/Total Area.

PTH1R‐V204E [2] = target: T2, PTH1R‐V204E (Homo sapiens, UniProt Q03431, V204E); assay: as above; conditions: ligand 30nM, means of six cells, representative experiment
T2 construct: expressed in transfected cells; plasmid TG-928 made by VectorBuilder
T2 sequence (Q03431 27-593 E90Y/S91D/E92V/E93P/K95Y/E96A/V204E): T1 sequence (Q03431 27-593 E90Y/S91D/E92V/E93P/K95Y/E96A/R186H) with H160R, V178E
Protocol: as §1, §2

PTH1R‐WT [3] = target: T3, PTH1R‐WT (Homo sapiens, UniProt Q03431); assay: as above; conditions: ligand 30nM, 30 min 4°C then 30 min room temperature, means of six cells, representative experiment
T3 construct: expressed in transfected cells; plasmid TG-906 made by VectorBuilder
T3 sequence (Q03431 27-593 E90Y/S91D/E92V/E93P/K95Y/E96A): T1 sequence (Q03431 27-593 E90Y/S91D/E92V/E93P/K95Y/E96A/R186H) with H160R
Protocol: as §1, §2

PTH1R‐P132L = target: T4, PTH1R‐P132L (Homo sapiens, UniProt Q03431, P132L); assay: β-arrestin2-YFP recruitment by fluorescence microscopy in GBR-24 cells, ImageJ analysis; conditions: ligand 30nM
T4 construct: expressed in transfected cells; plasmid TG-395 in pCDNA1
T4 sequence (Q03431 27-593 E90Y/S91D/E92V/E93P/K95Y/E96A/P132L): T1 sequence (Q03431 27-593 E90Y/S91D/E92V/E93P/K95Y/E96A/R186H) with P106L, H160R
Protocol: (§3) Recruitment of β‐arrestin was assessed in GBR‐24 cells (HEK293/GloSensor (GS‐22A)‐derived cells stably expressing β‐arrestin2^YFP)^( [30] ^) that were transiently transfected to express PTH1R‐WT or a mutant derivative.
as §2

PTH1R‐R186H [4] = target: T1, PTH1R‐R186H; assay: as above; conditions: ligand 30nM
Protocol: as §3, §2

PTH1R‐V204E [5] = target: T2, PTH1R‐V204E; assay: as above; conditions: ligand 30nM
Protocol: as §3, §2

PTH1R‐WT [6] = target: T3, PTH1R‐WT; assay: as above; conditions: ligand 30nM
Protocol: as §3, §2

[7] = GBR24 cells, means of six cells
[8] = GBR-24 cells, 30 min, a representative cell

## tetramethylrhodamine (TMR)‐^ n L ^8,21‐rat‐PTH(1‐34) [PTH(1‐34)^TMR]
PTH1R‐R186H [1]
  Particles /Total Area: 1162 ± 95
PTH1R‐V204E [2]
  Particles /Total Area: 826 ± 78
PTH1R‐WT [3]
  Particles /Total Area: 1011 ± 57
PTH1R‐P132L; [7]
  Particles/Total Area (βArrestinYFP-ligand complexes): 223 ± 66
PTH1R‐P132L; GBR-24 cells, 30 min (Fig. 4A)
  ligand binding and β-arrestin2YFP recruitment (microscopy signal): Only faint signal
PTH1R‐R186H [4]; [7]
  Particles/Total Area (βArrestinYFP-ligand complexes): 603 ± 81
PTH1R‐R186H [4]; [8]
  Pearson correlation coefficient (R), colocalization of ligand with β-arrestin2YFP: 0.86
PTH1R‐V204E [5]; [7]
  Particles/Total Area (βArrestinYFP-ligand complexes): 496 ± 44
PTH1R‐V204E [5]; [8]
  Pearson correlation coefficient (R), colocalization of ligand with β-arrestin2YFP: 0.69
PTH1R‐WT [6]; GBR24 cells, 30 min room temperature, means of six cells, representative experiment
  Particles/Total Area (βArrestinYFP-ligand complexes): 704 ± 22
PTH1R‐WT [6]; [8]
  Pearson correlation coefficient (R), colocalization of ligand with β-arrestin2YFP: 0.97
